Common to all, as to type: cell-based
For assay [1], the system named is THP1 (human monocytic cell line). In words: MTT cytotoxicity assay, leukemic cell line THP1. The conditions noted are these: Homo sapiens, THP-1, 72 h, three days. In outline:
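Cells grown in RPMI with FBS and L-glutamine at 37 °C, 5% CO2; 2000-5000 cells per well stabilized ≥8 h, then treated in triplicate with compound from 100 to 0.01 μM for three days. MTT added for five hours, formazan dissolved in DMSO, absorbance read at 620 nm versus untreated cells.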

Assay [2] has as its system MCF7 (breast adenocarcinoma). In words: MTT cytotoxicity assay, solid cancer cell line MCF7. The conditions noted are these: Homo sapiens, MCF7, 72 h, three days. In outline: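 Each line grown in DMEM with FBS and L-glutamine; 4000-10000 cells/well allowed to settle ≥16 h, then given compound at 100 to 0.01 μM in triplicate for three days. MTT added, medium replaced with DMSO after five hours, absorbance read at 620 nm. Untreated cells served as reference; each assay repeated 3 times.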

Assay [3] has as its system breast carcinoma cell line MCF7. Put plainly: Cell cycle profile by BrdU/propidium iodide flow cytometry. The conditions noted are these: asynchronously growing MCF7, 24 h, FIG. 1. As for the experimental part: Sub-confluent cells were treated with test compounds at different concentrations for 24 h. The cultures were pulse-labeled with […] 5-bromo-20-deoxyuridine (BrdU) for 30 min at 37° C. prior to harvesting. The cells were then washed in PBS, fixed with 70% ethanol, and denatured in 2 M HCl. Following neutralization, the cells were stained with anti-BrdU fluorescein-labeled antibodies, washed, stained with propidium iodide and analyzed by flow cytometry using a 488 nm laser

Assay [4] relates to caspases 3 and 7 in HCT116 cells. In words: Caspase-3/7 activity assay in HCT116 cells. Particulars: 24 h, FIG. 3. As to the method:
Measurement of proapoptotic properties of new compounds was based on quantification of enzymatic activities of caspases-3/7. Activity of cellular caspase-3/7 was measured according to Carrasco et al., 2003, BioTechniques, 34(5): 1064-67. Briefly, the cells were incubated in a 96-well plate overnight. Next day, the compounds in appropriate concentrations were added and cells were incubated for 24 hours. After incubation, 3× caspase-3/7 assay buffer (150 mM HEPES pH 7.4, 450 mM NaCl, 150 mM KCl, 30 mM MgCl2, 1.2 mM EGTA, 1.5% Nonidet P40, 0.3% CHAPS, 30% sucrose, 30 mM DTT, 3 mM PMSF) with 150 μM Ac-DEVD-AMC as a substrate (Sigma-Aldrich) was added to the wells and plates were incubated at 37° C. […]. The caspase activity was measured using Fluoroskan Ascent microplate reader (Labsystems) at 346 nm/442 nm (excitation/emission).

Assay [5] concerns PARP-1. Put plainly: Immunoblotting of apoptotic markers in HCT116 cells: PARP-1. Particulars: 24 hours, FIG. 4. As to the method:
(§1) Effect of novel compounds on apoptosis was confirmed by immunoblotting analysis of selected apoptotic proteins. For immunoblotting, cell were harvested, washed three times with ice-cold PBS and lysed in a buffer (50 mM Tris, pH 7.4, 250 mM NaCl, 5 mM EDTA, 50 mM NaF, 1 mM Na3VO4, 1% Nonidet P40) containing mixture of protease and phosphatase inhibitors (Sigma-Aldrich). 20 μg of total proteins were separated by SDS-polyacrylamide gel electrophoresis (SDS-PAGE) and transferred onto nitrocellulose membranes. Membranes were blocked in 5% milk and 0.1% Tween 20 in PBS and probed overnight with specific antibodies. Specific antibodies were purchased from SigmaAldrich (anti a-tubulin, clone DM1A), Santa Cruz Biotechnology (anti-Mcl-1, clone S-19; anti-PARP, clone F-2; anti-Mdm-2, clone SMP14; anti-Bcl-2), DAKO Cytomation Cell Signaling (anti-PUMA) or were a generous gift from Dr. B. Vojtesek (anti-p53, clone DO-1). All primary antibodies were diluted in PBS containing 5% powdered milk; 0.1% Tween 20. Peroxidase conjugated rabbit anti-mouse immunoglobulin or porcine anti-rabbit immunoglobulin antisera (DAKO) were used as the secondary antibodies and visualised with ECL reagents (GE-Healthcare Life Sciences).

Assay [6] relates to Mcl-1. In words: Immunoblotting of apoptotic markers in HCT116 cells: Mcl-1. Particulars: 24 hours, FIG. 4. As to the method:
as §1

Assay [7] deals with Mdm-2. In words: Immunoblotting of apoptotic markers in HCT116 cells: Mdm-2. Particulars: 24 hours, FIG. 4. As to the method:
as §1

On to `CC(C)c1[nH]nc2c(NCc3ccc(-c4ccccn4)cc3)nc(NCC(O)CN)nc12` (stereo not shown) [Compound 45], for which the IC50 in assay [1] is 0.49 µM; in assay [2], 0.31 µM. In addition, the “effect on the cell cycle of MCF7” value in assay [3] is “potently arrested cells in S, G2 and M phases”. Moreover, in assay [4], the “caspase-3/7 activity in HCT116 cells” value was “potent dose-dependent activation of the caspases in nanomolar concentrations”. In addition, the “PARP-1 cleavage (immunoblot)” value in assay [5] is “appearance of the caspase-3-cleaved PARP-1 fragment at 89 kDa”. Further, the “level of anti-apoptotic protein Mcl-1 (immunoblot)” value in assay [6] is listed as “dose-dependent decrease”. For the same compound, the “expression of Mdm-2 (immunoblot)” value in assay [7] is “decreased expression”.

These data come from patent publication US9957273B2, “5-substituted 7- [4-(2-pyridyl)phenylmethylamino] -3-isopropylpyrazolo4,3-D]pyrimidine derivatives, use thereof as medicaments, and pharmaceutical compositions” (USTAV EXPERIMENTALNI BOTANIKY AV CR, V.V.I., priority 2015, dated 2018).
